This note sets out measurements from patent publication US20260138961A1, “MODULATORS OF MITOCHONDRIAL DNA REPLICATION” (Pretzel Therapeutics, Inc., priority 2022, published 2026).

The assay concerns the target T1, POLγA:G848S (Homo sapiens, UniProt P54098, G848S).
T1 sequence (P54098 1-1239 G848S): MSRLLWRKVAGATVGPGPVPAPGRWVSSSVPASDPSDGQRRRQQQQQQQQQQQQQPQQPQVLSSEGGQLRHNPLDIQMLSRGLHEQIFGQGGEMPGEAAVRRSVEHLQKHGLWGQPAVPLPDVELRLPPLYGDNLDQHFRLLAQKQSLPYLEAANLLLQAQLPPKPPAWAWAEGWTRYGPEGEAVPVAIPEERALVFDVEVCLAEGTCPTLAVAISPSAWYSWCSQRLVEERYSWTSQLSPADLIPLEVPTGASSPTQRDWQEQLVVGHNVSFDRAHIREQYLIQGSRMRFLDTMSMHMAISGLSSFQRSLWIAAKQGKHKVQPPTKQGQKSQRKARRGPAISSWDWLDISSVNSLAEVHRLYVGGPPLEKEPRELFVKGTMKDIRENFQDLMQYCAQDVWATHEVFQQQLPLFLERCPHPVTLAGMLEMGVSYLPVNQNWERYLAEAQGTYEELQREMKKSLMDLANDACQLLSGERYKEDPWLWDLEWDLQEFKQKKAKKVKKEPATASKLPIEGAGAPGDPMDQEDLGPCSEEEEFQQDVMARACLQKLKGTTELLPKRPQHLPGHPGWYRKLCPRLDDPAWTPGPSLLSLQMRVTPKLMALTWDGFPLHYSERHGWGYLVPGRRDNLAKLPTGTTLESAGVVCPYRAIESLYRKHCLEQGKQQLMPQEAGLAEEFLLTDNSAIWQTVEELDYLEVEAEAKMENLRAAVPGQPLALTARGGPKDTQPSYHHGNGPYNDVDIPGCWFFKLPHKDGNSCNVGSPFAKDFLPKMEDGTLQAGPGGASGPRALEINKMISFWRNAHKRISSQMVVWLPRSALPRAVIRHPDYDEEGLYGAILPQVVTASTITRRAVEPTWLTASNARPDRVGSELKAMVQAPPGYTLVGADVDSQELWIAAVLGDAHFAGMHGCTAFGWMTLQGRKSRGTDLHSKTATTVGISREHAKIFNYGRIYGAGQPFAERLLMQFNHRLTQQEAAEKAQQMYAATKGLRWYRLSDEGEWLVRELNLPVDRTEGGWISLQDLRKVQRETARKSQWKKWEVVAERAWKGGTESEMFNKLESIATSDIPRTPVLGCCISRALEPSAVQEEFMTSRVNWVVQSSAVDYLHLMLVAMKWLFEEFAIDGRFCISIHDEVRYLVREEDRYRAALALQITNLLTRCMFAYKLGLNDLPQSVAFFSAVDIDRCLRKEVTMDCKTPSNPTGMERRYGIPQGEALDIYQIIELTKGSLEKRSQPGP
T1 sequence (Q9UHN1 1-485 partner): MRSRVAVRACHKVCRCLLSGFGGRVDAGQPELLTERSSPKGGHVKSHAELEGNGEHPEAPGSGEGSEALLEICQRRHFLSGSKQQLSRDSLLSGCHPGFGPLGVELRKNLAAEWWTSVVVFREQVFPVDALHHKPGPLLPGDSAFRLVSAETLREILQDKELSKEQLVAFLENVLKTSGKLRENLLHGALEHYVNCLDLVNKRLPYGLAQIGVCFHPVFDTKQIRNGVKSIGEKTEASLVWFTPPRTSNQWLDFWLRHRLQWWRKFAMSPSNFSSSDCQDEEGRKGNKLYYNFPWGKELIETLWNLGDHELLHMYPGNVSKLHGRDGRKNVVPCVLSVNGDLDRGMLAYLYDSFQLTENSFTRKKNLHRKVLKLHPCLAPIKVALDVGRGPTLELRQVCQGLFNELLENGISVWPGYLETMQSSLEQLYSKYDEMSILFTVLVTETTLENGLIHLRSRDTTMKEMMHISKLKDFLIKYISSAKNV
Briefly: DNA polymerization assay, POLγA:G848S mutant. It is filed as biochemical. The conditions noted are these: stimulation of polymerase activity, primed M13mp18 ssDNA, 37° C. 2 hours; read-out: G848S AC50.
In general, AC50 refers to the midpoint of the concentration-response curve, whichever way the signal moves. Regarding `Cc1ccc(S(=O)(=O)Nc2csc(-c3ccccc3)n2)c(C)c1` [Example 123, 2,4-dimethyl-N-(2-phenylthiazol-4-yl)benzenesulfonamide], the concentration at half-maximal activity (AC50) was determined as 2 µM.

On to `Cc1cc(F)ccc1S(=O)(=O)Nc1csc(-c2ccccc2)n1` [Example 124, 4-fluoro-2-methyl-N-(2-phenylthiazol-4-yl)benzenesulfonamide], for which the AC50 came to 2 µM.

For `O=S(=O)(Nc1csc(-c2ccccc2)n1)c1ccccc1Cl` [Example 125, 2-chloro-N-(2-phenylthiazol-4-yl)benzenesulfonamide], the AC50 turned out to be 7 µM. Under `O=S(=O)(Nc1csc(-c2ccccc2)n1)c1ccc(F)cc1Cl` [Example 126, 2-chloro-4-fluoro-N-(2-phenylthiazol-4-yl)benzenesulfonamide] stands more than 100 µM.

`O=S(=O)(Nc1csc(-c2ccccc2)n1)c1ccc(C(F)(F)F)cc1` [Example 127, N-(2-phenylthiazol-4-yl)-4-(trifluoromethyl)benzenesulfonamide]: the concentration at half-maximal activity (AC50) was more than 100 µM. Under `O=S(=O)(Nc1csc(-c2ccccc2)n1)c1cccc2nccnc12` [Example 128, N-(2-phenylthiazol-4-yl)quinoxaline-5-sulfonamide] stands more than 100 µM; under `Cc1cc(S(=O)(=O)N[C@H]2CCCN(C(=O)c3ccccc3)C2)c(C)cc1Cl` [Example 129, (S)-N-(1-benzoylpiperidin-3-yl)-4-chloro-2,5-dimethylbenzenesulfonamide], more than 100 µM.

`Cc1cc(S(=O)(=O)N[C@H]2CCCN(C(=O)N3CCCC3)C2)c(C)cc1Cl` [Example 130, (S)-4-chloro-2,5-dimethyl-N-(1-(pyrrolidinee-1-carbonyl)piperidin-3-yl)benzenesulfonamide]: the AC50 is more than 100 µM. With `Cc1cc(S(=O)(=O)Nc2nsc(-c3ccccc3)n2)c(C)cc1Cl` [Example 131, 4-chloro-2,5-dimethyl-N-(5-phenyl-1,2,4-thiadiazol-3-yl)benzenesulfonamide], the AC50 is 3 µM. Regarding `Cc1cc(S(=O)(=O)Nc2nc(-c3ccccc3)ns2)c(C)cc1Cl` [Example 132, 4-chloro-2,5-dimethyl-N-(3-phenyl-1,2,4-thiadiazol-5-yl)benzenesulfonamide], the AC50 is more than 100 µM. Next, `Cc1cc(S(=O)(=O)Nc2cccc(C(=O)N3CCC[C@@H]3C)c2)c(C)cc1Cl` [Example 133, (S)-4-chloro-2,5-dimethyl-N-(3-(2-methylpyrrolidine-1-carbonyl)phenyl)benzenesulfonamide]: 18 µM. Under `Cc1ccc(C)c(S(=O)(=O)Nc2csc(-c3ccccc3)n2)c1` [Example 134, 2,5-dimethyl-N-(2-phenylthiazol-4-yl)benzenesulfonamide] stands 1 µM; under `Cc1cc(Cl)ccc1S(=O)(=O)Nc1csc(-c2ccccc2)n1` [Example 135, 4-chloro-2-methyl-N-(2-phenylthiazol-4-yl)benzenesulfonamide], 2 µM. Next, `Cc1cc(S(=O)(=O)Nc2csc(-c3ccccc3)n2)c(Cl)cc1F` [Example 136, 2-chloro-4-fluoro-5-methyl-N-(2-phenylthiazol-4-yl)benzenesulfonamide]: 2 µM. For the compound `O=S(=O)(Nc1csc(-c2ccccc2)n1)c1ccc2ncsc2c1` [Example 137, N-(2-phenylthiazol-4-yl)benzo[d]thiazole-6-sulfonamide], the AC50 turned out to be 11 µM. Under `O=S(=O)(Nc1csc(-c2ccccc2)n1)c1ccc(Cl)cc1Cl` [Example 138, 2,4-dichloro-N-(2-phenylthiazol-4-yl)benzenesulfonamide] stands more than 100 µM. As for `O=S(=O)(Nc1csc(-c2ccccc2)n1)c1ccccn1` [Example 139, N-(2-phenylthiazol-4-yl)pyridine-2-sulfonamide], the AC50 was more than 100 µM. Next, `O=S(=O)(Nc1csc(-c2ccccc2)n1)c1ccc(F)cc1F` [Example 140, 2,4-difluoro-N-(2-phenylthiazol-4-yl)benzenesulfonamide]: more than 100 µM.
